# According to patent publication US12486334B2, “Chemically controlled monoclonal antibody target engagement” (The Regents of the University of California, priority 2019, dated 2025):
# Experiments:
# [1] = test system: human H358 (G12C+) cells xenografted tumors; test: H358 xenograft murine model, P1A4 IgG staining of harvested tumors by flow cytometry; format: in vivo, Mice
# Protocol: In order to test whether ARS-1620 is accessible and targetable on the surface of treated cells in more complex systems, an H358 xenograft murine model was utilized. Mice were xenografted with human H358 (G12C+) cells and treated with either DMSO (placebo), ARS-1620 (1× at 200 mg/kg, or 3× at 200 mg/kg daily), or AMG-510 (1× at 100 mg/kg).
# [2] = test system: KRas G12C cell lines (H358, MiaPaca-2, SW1573); test: Flow cytometry of cell-surface accessible ARS-1620 with P1A4; format: cell-based; settings: several KRas G12C cell lines compared to a wild type KRas cell line
# Text: Low background staining observed in the presence of DMSO treatment confirms that the interaction is ARS-1620 dependent.
# [3] = target: KRas G12C (Homo sapiens, UniProt P01116, G12C); settings: Visscher et al. 2016; cited from earlier work
# [4] = target: wild type KRas (Homo sapiens, UniProt P01116); settings: Visscher et al. 2016; cited from earlier work
# [5] = test system: ARS-1620 labeled peptides eluted from KRas G12C cells; test: Covalent capture ELISA of MHC eluted peptides (mild acid elution); format: cell-based; settings: ARS-1620 treated KRas G12C samples, stained with P1A4 IgG
# Text: (§1) To test whether the cell surface exposed ARS-1620 was pMHC associated, a proximity ligation assay was used in which fluorescent signal is indicative of colocalization of ARS-1620 and MHC (FIG. 5). […] To test whether this colocalization was due to direct covalent reaction with MHC molecules already on the cell surface or due to traditional loading of intracellular MHCs with covalently modified intracellular peptides, a covalent capture ELISA was used to detect ARS-1620 labeled peptides eluted from cells by mild acid elution. A short acid treatment dissociates peptides from the pMHC on living cells, allowing capture of the presented peptides in the acidic buffer supernatant and subsequent covalent immobilization via their N-terminus for ELISA. […] The eluted peptides and peptides obtained from MHC immunoprecipitation are analyzed by mass spectrometry to precisely identify haptenized peptide sequences.
# [6] = test system: colocalization of ARS-1620 and MHC in a KRas G12C cell line; test: Proximity ligation assay (PLA); format: cell-based; settings: not with atropisomer or DMSO
# Text: FIG. 5 is a schematic of the proximity ligation assay (PLA) for detecting colocalization of two antigens. […] Secondary antibodies are directed against the Fc region of the human or murine antibodies, and are attached to complimentary oligos used to assemble a complementary oligo for rolling circle amplification (RCA). Amplification only occurs if the two antigens are colocalized, and amplified oligos are detected with complimentary, fluorogenic oligos.
# as §1
# [7] = test system: H358 (G12C+) cell lysate; test: Western blot of cell lysate with P1A4 IgG; format: binding; settings: treated H358 (G12C+) cells
# [8] = test system: T-cells of PBMCs co-incubated with MiaPaca-2 (KRas G12C) cells; test: T cell activation (CD3/CD69) by flow cytometry after 72 hr co-incubation; format: cell-based; settings: ARS1620, No Ab
# Text: MiaPaca-2 (KRas G12C) cells were pulsed with either DMSO or ARS-1620 in order to label proteins without exerting a direct pharmacological effect on the health of the cells. […] Following the 72 hr treatment, cells were stained for T-cell receptors (CD3) and T-cell activation (CD69) and analyzed by flow cytometry.
SMILES,P1A4 IgG staining of xenografted tumor cells ([1]; AMG-510 1× at 100 mg/kg),increase in cell surface ARS-1620 [2] [×],specificity for KRas G12C over other cellular proteins [3],binding to wild type KRas lacking acquired cysteine [4],ARS-1620 haptenized peptides in MHC eluted peptides [5],fluorescent signal (colocalization of ARS-1620 with MHC) [6],off-targets of ARS-1620 detected by western blot with P1A4 [7],P1A4 IgG staining of xenografted tumor cells ([1]; ARS-1620 1× at 200 mg/kg or 3× at 200 mg/kg daily),% CD3 + CD69+ [8] [%]
C=CC(=O)N1CCN(c2nc(=O)n(-c3c(C)ccnc3C(C)C)c3nc(-c4c(O)cccc4F)c(F)cc23)[C@@H](C)C1 [AMG-510],no P1A4 staining,–,–,–,–,–,–,–,–
"C=CC(=O)N1CCN(c2ncnc3c(F)c(-c4c(O)cccc4F)c(Cl)cc23)CC1 (atropisomer, axis not shown) [ARS-1620]",–,10,high specificity,no appreciable binding,readily detected,detectable,additional off-targets,P1A4+ cell population emerged,2.42
